# Assay results published in patent US20250281457A1, “TREATMENT OR PREVENTION OF DENGUE VIRAL INFECTION” (Janssen Pharmaceuticals, Inc., priority 2022, published 2025).
# Marks after values point to notes of the source that are not given here.
# How the values were obtained:
# [1] = Safety and tolerability, adverse events (Example 1); assay type: in vivo, human
# Method: Safety and tolerability of Compound (a) was evaluated throughout the study, by recording the adverse events (AE) and their grade, as reported by the participants. An AE is any untoward medical occurrence in a subject administered the pharmaceutical formulation comprising Compound (a). […] An AE can therefore be any unfavorable and unintended sign (including an abnormal finding), symptom, or disease temporally associated with the use of the pharmaceutical formulation comprising Compound (a), whether or not related to the administration of the pharmaceutical formulation comprising Compound (a) (definition per International Conference on Harmonisation [ICH].) This includes any occurrence that is new in onset or aggravated in severity or frequency from the baseline condition, or abnormal results of diagnostic procedures, including laboratory test abnormalities. Grade refers to the severity of the AE, according to the below guideline: • Grade 1 Mild: transient or mild discomfort (<48 hours); no medical intervention/therapy required. • Grade 2 Moderate: mild to moderate limitation in activity; some assistance may be needed; no or minimal medical intervention/therapy required. • Grade 3 Severe: marked limitation in activity; some assistance usually required; medical intervention/therapy required; hospitalizations possible. • Grade 4 Potentially Life-threatening: Extreme limitation in activity; significant assistance required; significant medical intervention/therapy required; hospitalization or hospice care probable. All reported AEs with onset during the treatment phase and AEs that have worsened since baseline (ie, treatment-emergent AEs (TEAEs)) were included in the analysis.
# [2] = Safety and tolerability, TEAEs (Example 2); assay type: in vivo, human
# Method: Safety and tolerability of Compound (a) was evaluated throughout the study, as described in Example 1.
# [3] = Panel 1 (400 mg fasted: Treatment A oral solution and Treatment B SF1b)
# [4] = Panels 1 and 2 (400 mg fasted; oral solution, SF1b, SF2b)
smiles,measurement,setting,value
COc1cc(NC(C(=O)c2c[nH]c3ccc(OC(F)(F)F)cc23)c2ccc(Cl)cc2OC)cc(S(C)(=O)=O)c1 (centres unmarked) [Compound (a)],"Related adverse events, Grade 1",[1]; [3],"two Grade 1 AEs of throat irritation and dermatitis on one subject, and throat irritation and dermaturia in another subject"
same,"Related adverse events, Grade 2",[1]; [3],one Grade 2 AE of headache and dermatitis
same,"Related adverse events, Grade 1",[1]; Panel 2 (400 mg fasted: Treatment A oral solution and Treatment C SF2b),two Grade 1 AEs of headache and dermatitis each in one subject
same,"Grade 1 Treatment Emergent Events, overall",[1]; [4],11
same,"Grade 2 Treatment Emergent Events, overall",[1]; [4],7
same,"Grade 3 Treatment Emergent Events, overall",[1]; [4],One
same,"Grade 4 Treatment Emergent Events, overall",[1]; [4],No
same,at least 1 TEAE reported,"[2]; Panel 3, Treatment D (800 mg, fasted)",9 (69.2%) # Participants (%)
same,at least 1 TEAE reported,"[2]; Panel 3, Treatment E (800 mg, fed, standardized breakfast)",6 (40.0%) # Participants (%)
same,at least 1 TEAE reported,"[2]; Panel 4, Treatment F (200 mg, fasted)",6 (46.2%) # Participants (%)
same,at least 1 TEAE reported,"[2]; Panel 4, Treatment G (200 mg, fed, standardized breakfast)",7 (58.3%) # Participants (%)
same,at least 1 TEAE reported,"[2]; Panel 5, Treatment H (50 mg, fasted)",5 (38.5%) # Participants (%)
same,at least 1 TEAE reported,"[2]; Panel 5, Treatment I (50 mg, fed, standardized breakfast)",8 (66.7%) # Participants (%)
same,"Safety and tolerability, overall conclusion","[2]; single doses 50-800 mg SF2a/b, fasted or fed",safe and well tolerated
